# Literature values, collected in the CATMoS acute toxicity set (Mansouri et al. 2021).
# Values joined by “and” are separate entries in the source; they are usually repeats but may differ in a detail not shown here. Equal entries are not always repeated.
# Assay: rat acute oral toxicity
# Details: in vivo
row,Compound,LD50
1,Nc1c(Cl)c(Cl)c2[nH]c(C(F)(F)F)nc2c1Cl,23 mg/kg
2,CCOP(=O)(OCC)Oc1ccc(S(C)(=O)=O)c(C)c1,8.13 mg/kg
3,CN1COCN(Cc2cnc(Cl)s2)C1=N[N+](=O)[O-],1560 mg/kg
4,O=CC1C(=O)N(c2ccccc2)N=C1c1ccccc1 (centres undefined),789 mg/kg
5,CN1CCC(OC(=O)COc2ccc(Cc3ccc(Cl)cc3)cc2)CC1,1900 mg/kg
6,ClC1=C(Cl)C2(Cl)C(CBr)CC1(Cl)C2(Cl)Cl (centres undefined),12500 mg/kg
7,CN1CCCN(C)C1=O,1770 mg/kg
8,CC1(C)C(C(=O)OC(C#N)c2cccc(Oc3ccccc3)c2)C1(C)C (centres undefined),18 mg/kg
9,Cc1c(Cl)c(Br)cc2[nH]c(C(F)(F)F)nc12,30 mg/kg
10,CCOP(=O)(O)CCCl,1250 mg/kg
11,CCOP(=S)(OCC)SC1CCSc2ccc(Cl)cc21 (centres undefined),63 mg/kg
12,CC(=O)CC(=O)OC(C)C,16200 mg/kg
13,Cc1ccc(C)c(CCNC(N)=O)c1,2300 mg/kg
14,C[C@H](NCCc1ccc(O)cc1)[C@H](O)c1ccc(O)cc1,1840 mg/kg
15,COP(=S)(NC(C)C)Oc1ccc(Cl)cc1Cl (centres undefined),270 mg/kg
16,CCOC(C)C#N (centres undefined),2860 mg/kg
17,CC1(C)[C@H](C=C(Cl)Cl)[C@H]1C(=O)OCc1c(F)c(F)c(F)c(F)c1F,85 mg/kg
18,CC=CC=CC=CC(C)=O,4300 mg/kg
19,C[C@H]1[C@H](c2ccccc2)OCCN1C,455 mg/kg
20,ClC=C(Cl)CCl,616 mg/kg
21,COc1ccccc1C1=CCN(CC=Cc2ccc3c(c2)CCC(=O)N3)CC1,500 mg/kg
22,CCN(CC)CCNc1c(Cl)cc(C)c2ncccc12,900 mg/kg
23,O=C(O)c1cc(Oc2ccc(C(F)(F)F)cc2Cl)ccc1[N+](=O)[O-],1370 mg/kg
24,O=[N+]([O-])c1cc([N+](=O)[O-])c(Nc2cc(C(F)(F)F)ccc2Cl)c(C(F)(F)F)c1,94 mg/kg
25,CC1(C)C(=O)N(Cl)C(=O)N1Cl,542 mg/kg

row,Compound,LD50
1,O=C=Nc1ccccc1C(F)(F)F,7000 mg/kg
2,OC1(c2ccccc2)c2ccccc2C2=NCCN21 (centres undefined),300 mg/kg
3,CN(C)c1ccc(N=Nc2ccc(S(=O)(=O)O)cc2)cc1,60 mg/kg
4,CCOP(=O)(SC(C)CC)N1CCSC1=O (centres undefined),57 mg/kg
5,BrC(Br)(Br)c1ccc2ccccc2n1,6770 mg/kg
6,O=C(c1ccc(Cl)cc1)n1cc(Cc2nn[nH]n2)c2ccccc21,1200 mg/kg
7,CC[N+]1(CC)CCCO1,150 mg/kg
8,CC=Cc1ccc(OCC)c(O)c1,2400 mg/kg
9,O=C(O)C1CC=CCC1 (centres undefined),4260 mg/kg
10,CCO[Si](CCCS)(OCC)OCC,6110 mg/kg
11,CC(C)(C)NC[C@H](O)COc1ccccc1C1CCCC1,1260 mg/kg
12,BrCC=CCBr,75 mg/kg
13,CCC(C)C(CC)C(N)=O (centres undefined),760 mg/kg
14,CCCCOCCC#N,7460 mg/kg
15,CC(C)COC(=S)S,1290 mg/kg
16,CCN(CC)c1ccc(N=O)c(O)c1,315 mg/kg
17,Cc1cc(O)c(C(C)(C)C)cc1C,1030 mg/kg
18,Cc1ccc2ccccc2c1N,620 mg/kg
19,COP(=O)(OC)C(OC(C)=O)=C(Cl)Cl,300 mg/kg
20,CC(c1ccc(OC#N)cc1)c1ccc(OC#N)cc1,1000 mg/kg
21,CCCCOCCCOC(=O)CCOc1cc(Cl)c(Cl)cc1Cl,500 mg/kg
22,CCOC(=O)C1=C(COCCOCCN)NC(C)=C(C(=O)OC)[C@@H]1c1cccc(Cl)c1Cl,136 mg/kg
23,COc1ccc2c(c1)c(CC(=O)OCC(=O)O)c(C)n2C(=O)c1ccc(Cl)cc1,24.2 mg/kg
24,C[C@H](CCC(=O)O)[C@H]1CC[C@H]2[C@@H]3[C@H](O)C[C@@H]4C[C@H](O)CC[C@]4(C)[C@H]3CC[C@]12C,4000 mg/kg
25,O=[N+]([O-])c1ccc(/C=N/NC(=S)N2CCCCC2)o1,750 mg/kg

row,Compound,LD50
1,Clc1cn[nH]c1,527 mg/kg
2,Fc1ccc(-c2cccs2)cc1,500 mg/kg
3,CCc1c(C)nc2cccc(C)n2c1=O,690 mg/kg
4,CCOC(=O)[C@H](CCc1ccccc1)N[C@@H](C)C(=O)N(CC(=O)O)C1Cc2ccccc2C1,8260 mg/kg
5,CCCCNC(=O)NS(=O)(=O)c1ccc(C)cc1,2490 mg/kg
6,CN(C)N=Nc1cccc(C(N)=O)c1,54 mg/kg
7,CCCCCCCCCCCCCCCCSCC(COC)COP(=O)([O-])OCC[N+](C)(C)C (centres undefined),253 mg/kg
8,Cc1ccccc1C(=O)Nc1cccc(OC(C)C)c1,10000 mg/kg
9,C1=CCCCC1,1950 mg/kg
10,Nc1ccc(S(=O)(=O)O)c2cccc(O)c12,6210 mg/kg
11,Nc1ccc(-c2ccccc2N)cc1,311 mg/kg
12,CNC(=O)Oc1ccccc1C1OCC=CCO1,35 mg/kg
13,CCOP(=S)(OCC)SC(C(=O)OCCF)c1ccccc1 (centres undefined),5 mg/kg
14,CN(C)CCC1(c2ccccc2)C=Cc2ccccc21 (centres undefined),385 mg/kg
15,CC1=C(C(=O)OCCN2CCN(C(c3ccccc3)c3ccccc3)CC2)C(c2cccc([N+](=O)[O-])c2)C(P2(=O)OCC(C)(C)CO2)=C(C)N1 (centres undefined),194 mg/kg
16,CCn1cc(C(=O)O)c(=O)c2cc(F)c(N3CCNC(C)C3)c(F)c21 (centres undefined),3800 mg/kg and 1560 mg/kg
17,CCCc1c(OCCCCc2nnn[nH]2)ccc(C(C)=O)c1O,650 mg/kg
18,Cc1ccc(OC(=O)c2ccccc2O)cc1,1300 mg/kg
19,CCOC(=S)c1ccc2c(c1)OCO2,1160 mg/kg
20,O=C1C(CCC2CC2)C(=O)N(c2ccccc2)N1c1ccccc1,400 mg/kg
21,COC(F)(F)C(F)Cl (centres undefined),5130 mg/kg
22,COc1cc(N)c(Cl)cc1C(=O)NC1CCNCC1,2550 mg/kg
23,CCOP(=S)(Oc1ccc([N+](=O)[O-])cc1)Oc1ccc([N+](=O)[O-])cc1,66.9 mg/kg
24,COC1=C(OC)C(=O)C(CCCCCCCCCCO)=C(C)C1=O,10000 mg/kg
25,O=C(Nc1ccc(O)cc1)c1ccccc1O,6700 mg/kg

row,Compound,LD50
1,c1ccc(N2CCNCC2)cc1,210 mg/kg
2,CCCCCC(=O)NO,3200 mg/kg
3,FC(F)(F)c1nc2c(Cl)cc(Br)cc2[nH]1,6.4 mg/kg
4,CCN(CC)C(=O)c1ccc(O)c(OC)c1,154 mg/kg
5,O=C1CCc2cc(C(=O)CCCN3CC=C(c4ccccc4)CC3)ccc2N1,500 mg/kg
6,CCOC(=O)C(Br)CBr (centres undefined),240 mg/kg
7,Cc1c(Cl)cccc1Nc1ncccc1C(=O)O,335 mg/kg
8,COc1ccc(N)cc1OC,681 mg/kg
9,CN(C1CCCCC1)C1CCCCC1,446 mg/kg
10,O=C1CSC2(CCN(CCCN3c4ccccc4Sc4ccc(Cl)cc43)CC2)N1,3800 mg/kg
11,NCCCCCCC(=O)O,9000 mg/kg
12,CC(CCO)CCO,7780 mg/kg
13,O=S1(=O)CCC(NC(=S)S)C1 (centres undefined),1700 mg/kg
14,O=C(O)c1cccc2c(Cl)ccc(C(=O)O)c12,3500 mg/kg
15,CC(CN1CCN(CCOCCO)CC1)CN1c2ccccc2Sc2ccccc21 (centres undefined),400 mg/kg
16,CC(C)c1ccc(C=O)cc1,1390 mg/kg
17,CCN1CC(CC(N)=O)CC2c3cccc4[nH]cc(c34)CC21 (centres undefined),38.5 mg/kg
18,CCOC(=O)C1CCCCC1,3960 mg/kg
19,CCC(C)OC(C[n+]1ccccc1)c1ccccc1 (centres undefined),250 mg/kg
20,CN1CCN(C(=O)Cn2c(=O)sc3ccc(Cl)cc32)CC1,640 mg/kg
21,CN(C)CCNC(=O)C(C)(C)Oc1ccc(Cl)cc1,130 mg/kg
22,CC1CCCC(C)N1CCCNc1n[nH]c2ccccc12 (centres undefined),700 mg/kg
23,CCO[Si](CCl)(OCC)OCC,2400 mg/kg
24,CC=CC(=O)O,1000 mg/kg
25,N=C(N)SCc1ccc([N+](=O)[O-])cc1,300 mg/kg

row,Compound,LD50
1,CC(=O)OC1=C(c2c(C)cc(C)cc2C)C(=O)c2ccccc21,8000 mg/kg
2,COCCOC(=O)c1ccccc1C(=O)OCCOC,4400 mg/kg
3,CCCCCN(CCCCC)N=O,1750 mg/kg
4,CNC(=O)ON=C1CCCC1(C)[N+](=O)[O-] (centres undefined),4 mg/kg
5,NNC(=O)CCCCCCCCC(=O)NN,2500 mg/kg
6,Nc1ccc2ccccc2c1,727 mg/kg
7,c1ccc2[nH]c(SN3CCCCC3)nc2c1,853 mg/kg
8,O=NN(CCCC(F)(F)F)CCCC(F)(F)F,750 mg/kg
9,CCCCCOc1c(Br)cc(Br)cc1COCCN(CC)CC,350 mg/kg
10,O=c1[nH]ncc2ccccc12,370 mg/kg
11,C=CC1OCC(C)O1 (centres undefined),890 mg/kg
12,C1COC(NC(C2CC2)C2CC2)=N1,295 mg/kg
13,O=C(OCCN1CCCCC1)C(O)(c1ccccc1)c1ccccc1,1210 mg/kg
14,COc1c2occc2c(OC)c2c(=O)cc(C)oc12,68.8 mg/kg
15,COP(N)(=S)Oc1ccccc1C(=O)OC(C)C (centres undefined),50 mg/kg
16,CN(C)c1ccc(C=Cc2ccccc2)cc1,50 mg/kg
17,c1ccc(N(CCN2CCCCC2)Cc2ccccn2)cc1,806 mg/kg and 740 mg/kg
18,Nc1cc(Cl)c(NC2=NCCN2)c(Cl)c1,38 mg/kg
19,OCCN(CCO)c1nc(-c2ccccc2)c(-c2ccccc2)o1,11400 mg/kg
20,CC(C)CNC(=S)NCC(C)C,800 mg/kg
21,C[C@@H](NCCc1ccc(O)cc1)[C@@H](O)c1ccc(O)cc1 (racemic),1840 mg/kg
22,Cc1cc(=NC(=O)c2ccccc2O)n(-c2ccccc2)n1C,1270 mg/kg
23,CCCCOC(C1=NCCCN1)c1ccccc1 (centres undefined),310 mg/kg
24,ClC=C(Cl)c1ccccc1,4000 mg/kg
25,CCCCC(CC)C(=O)OCCOCCOCCOC(=O)C(CC)CCCC (centres undefined),31000 mg/kg

row,Compound,LD50
1,CNC(=O)N1C(=O)CN=C(c2ccccc2)c2cc([N+](=O)[O-])ccc21,2280 mg/kg
2,FCCBr,5 mg/kg
3,CCOP(=S)(OCC)Oc1cc(C)n(CC)c(=O)c1,7070 mg/kg
4,Nc1ccc(F)c([N+](=O)[O-])c1,1100 mg/kg
5,COC(=O)c1cccc(CCN(C)Cc2ccccc2)c1,700 mg/kg
6,Nc1nc2ccc(Cl)cc2o1,226 mg/kg
7,CC(C)=NN=C(C)C,423 mg/kg
8,COCCOCCOCCOC(C)=O,11000 mg/kg
9,C=CC(CCCCC)OC(C)=O (centres undefined),850 mg/kg
10,CCCCCCc1ccc(C(C[n+]2ccccc2)OCC(CC)CCCC)cc1 (centres undefined),250 mg/kg
11,CN(C)CCC(c1ccccc1)c1ccccn1 (centres undefined),520 mg/kg
12,COS(=O)(=O)c1ccc(C)cc1,341 mg/kg
13,Oc1ccc(Nc2ccc3ccccc3c2)cc1,5200 mg/kg
14,CCNC(=O)C(C)OC(=O)Nc1ccccc1 (centres undefined),11000 mg/kg
15,O=[N+]([O-])C(Br)(Br)CO,29.1 mg/kg
16,C#CC(C)OC(=O)Nc1cccc(Cl)c1 (centres undefined),2380 mg/kg
17,Cc1ccccc1OCC(COC(O)C(Cl)(Cl)Cl)OC(O)C(Cl)(Cl)Cl (centres undefined),880 mg/kg
18,CC(=O)OCC1=CC[C@@H]2C[C@H]1C2(C)C,2600 mg/kg
19,O=S(=O)(Cl)c1ccccc1,1960 mg/kg
20,Cc1ccc(S(=O)(=O)N(C)N=O)cc1,2700 mg/kg
21,CC(C)NCC(O)COc1cccc2[nH]ccc12 (centres undefined),263 mg/kg
22,CC(=C\c1ccccc1)/C=C1/SC(=S)N(CC(=O)O)C1=O,5.3 mg/kg
23,C=CCn1c(C)c(N(C)C)c(=O)n(-c2ccccc2)c1=O,2400 mg/kg
24,CC(=O)OC(C)(C)CCc1ccccc1,4850 mg/kg
